This passage reports activity coefficient results from the NIST ThermoML archive (doi:10.1016/j.fluid.2009.08.017).

± gives the expanded uncertainty stated by the source.

This data set is described as follows: activity coefficient (dimensionless); of the first substance listed, at infinite dilution; xn = mol fraction of the nth substance listed. The note with it: 101 kPa, Liquid, Chromatography, x1 = 0.

With `Cc1ccccc1C` [1,2-dimethylbenzene] + CCCCCCOCn1cc[n+](C)c1.O=S(=O)([N-]S(=O)(=O)C(F)(F)F)C(F)(F)F, the activity coefficient by setting is: (318.15 K) 1.33 ± 0.086; (328.15 K) 1.34 ± 0.087; (338.15 K) 1.35 ± 0.087; (348.15 K) 1.35 ± 0.088; (358.15 K) 1.36 ± 0.088; (368.15 K) 1.36 ± 0.089.

As to `Cc1ccccc1C` [1,2-dimethylbenzene] + CCCCCCOCn1cc[n+](COCCCCCC)c1.O=S(=O)([N-]S(=O)(=O)C(F)(F)F)C(F)(F)F, the activity coefficient came out at 0.89 ± 0.057 (318.15 K); 0.891 ± 0.057 (328.15 K); 0.892 ± 0.057 (338.15 K); 0.894 ± 0.057 (348.15 K); 0.895 ± 0.057 (358.15 K); 0.896 ± 0.057 (368.15 K).

As for `Cc1cccc(C)c1` [1,3-dimethylbenzene] + CCCCCCOCn1cc[n+](C)c1.O=S(=O)([N-]S(=O)(=O)C(F)(F)F)C(F)(F)F, the activity coefficient runs as follows: (318.15 K) 1.45 ± 0.095; (328.15 K) 1.46 ± 0.096; (338.15 K) 1.47 ± 0.096; (348.15 K) 1.48 ± 0.097; (358.15 K) 1.48 ± 0.098; (368.15 K) 1.49 ± 0.098.

As to `Cc1cccc(C)c1` [1,3-dimethylbenzene] + CCCCCCOCn1cc[n+](COCCCCCC)c1.O=S(=O)([N-]S(=O)(=O)C(F)(F)F)C(F)(F)F, the activity coefficient (318.15 K) amounted to 0.944 ± 0.06; the activity coefficient (328.15 K) is 0.946 ± 0.06; the activity coefficient (338.15 K) amounted to 0.948 ± 0.06; the activity coefficient (348.15 K) was 0.951 ± 0.06; the activity coefficient (358.15 K) amounted to 0.953 ± 0.06; the activity coefficient (368.15 K) was 0.955 ± 0.06.

In the case of `Cc1ccc(C)cc1` [1,4-dimethylbenzene] + CCCCCCOCn1cc[n+](C)c1.O=S(=O)([N-]S(=O)(=O)C(F)(F)F)C(F)(F)F, the activity coefficient runs as follows: (318.15 K) 1.46 ± 0.096; (328.15 K) 1.47 ± 0.097; (338.15 K) 1.48 ± 0.097; (348.15 K) 1.49 ± 0.098; (358.15 K) 1.5 ± 0.098; (368.15 K) 1.5 ± 0.099.

For `Cc1ccc(C)cc1` [1,4-dimethylbenzene] + CCCCCCOCn1cc[n+](COCCCCCC)c1.O=S(=O)([N-]S(=O)(=O)C(F)(F)F)C(F)(F)F, the activity coefficient reads like this: (318.15 K) 0.949 ± 0.06; (328.15 K) 0.952 ± 0.06; (338.15 K) 0.955 ± 0.06; (348.15 K) 0.958 ± 0.06; (358.15 K) 0.96 ± 0.06; (368.15 K) 0.962 ± 0.06.

Regarding `C=CCCCCC` [1-heptene] + CCCCCCOCn1cc[n+](C)c1.O=S(=O)([N-]S(=O)(=O)C(F)(F)F)C(F)(F)F, the activity coefficient by setting is: (298.15 K) 6.16 ± 0.42; (308.15 K) 5.96 ± 0.41; (318.15 K) 5.79 ± 0.39; (328.15 K) 5.61 ± 0.38; (338.15 K) 5.44 ± 0.37; (348.15 K) 5.3 ± 0.36. For the same molecule, the activity coefficient by setting is: (358.15 K) 5.18 ± 0.35; (368.15 K) 5.05 ± 0.34.

With `C=CCCCCC` [1-heptene] + CCCCCCOCn1cc[n+](COCCCCCC)c1.O=S(=O)([N-]S(=O)(=O)C(F)(F)F)C(F)(F)F, the activity coefficient came out at 2.7 ± 0.18 (298.15 K); 2.64 ± 0.18 (308.15 K); 2.59 ± 0.18 (318.15 K); 2.54 ± 0.17 (328.15 K); 2.49 ± 0.17 (338.15 K); 2.45 ± 0.17 (348.15 K). The activity coefficient was found to be 2.41 ± 0.16 (358.15 K) and 2.37 ± 0.16 (368.15 K).

As for `C#CCCCCC` [1-heptyne] + CCCCCCOCn1cc[n+](C)c1.O=S(=O)([N-]S(=O)(=O)C(F)(F)F)C(F)(F)F, the activity coefficient came to 2.44 ± 0.17 (298.15 K); 2.45 ± 0.17 (308.15 K); 2.45 ± 0.17 (318.15 K); 2.46 ± 0.17 (328.15 K); 2.47 ± 0.17 (338.15 K); 2.48 ± 0.17 (348.15 K). In addition, the activity coefficient is, setting by setting: (358.15 K) 2.48 ± 0.17; (368.15 K) 2.49 ± 0.17.
